Values quoted from earlier work in US20130071435A1, “NOVEL HERBAL FORMULATION FOR THE MODULATION OF IMMUNE SYSTEM OF HIV INFECTED PATIENTS AND A PROCESS OF PREPARATION THEREOF” (Sunil Kumar Swamy Rajan and Arun Kumar Swamy Rajan, priority 2011, published 2013).

Conditions: experimental, in-vitro and in-vivo studies

Row | Substance | immuno-potentiating activity
1 | sitoindoside 1× | significant immuno-potentiating activity
2 | sitoindoside × | significant immuno-potentiating activity
